Source: PMC8476055, “Synthesis and Biological Activity of Triterpene–Coumarin Conjugates” (Journal of Natural Products, 2021)

Key:
[1] = system: B16–F10 murine melanoma cells; test: MTT cell proliferation assay, B16–F10 cells; format: cell-based; details: Mus musculus, 72 h treatment, untreated control = 100% viability, read-out: IC50, growth inhibition of B16–F10 cells
Procedure: (§1) These studies were performed using a 3-(4,5-dimethylthiazol-2-yl)-2,5-diphenyltetrazolium bromide (MTT) assay, with increasing concentration levels of each compound (0–200 μg/mL). Cell viability was determined after treatment for 72 h, by absorption of a formazan dye.
(§2) […] ATTC HTB-38), Hep G2 human hepatocyte carcinoma cells (ECACC 85011430), nontumor human epithelial lung fibroblast cells HPF (ScienCell catalog (cat.) no. 3300), nontumor rat ileum cells IEC-18 (ECACC no. 88011801), and nontumor human embryo liver cells (ECACC 89121403) were cultured in DMEM medium supplemented with 2 mM glutamine, 10% heat-inactivated fetal bovine serum (FCS), 10.000 units/mL penicillin, and […]. These cells were incubated at 37 °C in an atmosphere of 5% CO2 and 95% humidity. The culture media were changed every 48 h, and the confluent cultures were separated with a trypsin solution (0.25% EDTA). Subconfluent monolayer cells were used in all experiments. All cell lines used were provided by the cell bank of the University of Granada (Spain).
(§3) The effect of the synthesized compounds on the viability of tumor cells was assessed using an MTT assay, based on the ability of living cells to cleave the tetrazolium ring, thus producing formazan, which absorbs at 570 nm. […] For an evaluation of the cytotoxic effects of these compounds, the cells were seeded in 96-well plates at an initial density of 5 × 10^3 B16–F10 cells, 6 × 10^3 HT29 cells, 15 × 10^3 Hep G2 cells, 8 × 10^3 HPF cells, 15 × 10^3 IEC-18 cells, and 11 × 10^3 WRL68 cells, per well. After incubation for 24 h, the cells were treated with the synthesized compounds in triplicate, at different concentrations (0–200 μg/mL), and incubated for 72 h. Thereafter, 100 μL of MTT solution (0.5 mg/mL) were added to each well. After 2 h of incubation, the cells were washed twice with phosphate buffered saline (PBS), and the formazan was resuspended in 100 μL of DMSO. Relative cell viability, with respect to untreated control cells, was measured by absorbance at 550 nm on an ELISA plate reader (Tecan Sunrise MR20-301, TECAN, Austria). […] These experiments were measured and compared to the control after 72 h of treatment.

[2] = system: HT29 human colon adenocarcinoma cells; test: MTT cell proliferation assay, HT29 cells; format: cell-based; details: HT-29, 72 h treatment, untreated control = 100% viability, read-out: IC50, growth inhibition of HT29 cells
Procedure: as §1, §2, §3

[3] = system: Hep G2 human hepatocyte carcinoma cells; test: MTT cell proliferation assay, Hep G2 cells; format: cell-based; details: HepG2, 72 h treatment, untreated control = 100% viability, read-out: IC50, growth inhibition of Hep G2 cells
Procedure: as §1, §2, §3

B16–F10 cells = test: Mitochondrial-membrane potential (Rh123) flow cytometry, B16–F10; format: cell-based, murine; details: B16–F10, 72 h at IC50 concentration
Procedure: (§4) The study of the loss of the mitochondrial-membrane potential (MMP) of tumor cells, when treated with drugs, can provide information on the activation mechanism of apoptosis. This activation can occur extrinsically when MMP is not altered, and intrinsically when a loss of this potential is caused by mitochondrial disruption. […] The values of percentage of cell population were expressed as means ± SEM of at least two experiments in duplicate. Changes in MMP were analyzed by monitoring cell fluorescence after staining with rhodamine 123 (Rh123).
(§5) The electrochemical gradient across the mitochondrial membrane was examined by analytical flow cytometry, using dihydrorhodamine (DHR), which in contact with living cells, oxidized to form highly fluorescent rhodamine 123 (Rh123). The fluorescence emitted can be monitored by fluorescence spectroscopy using excitation and emission wavelengths of 500 and 536 nm, respectively. […] Following treatment, the culture medium was renewed with fresh medium by adding 0.5 mL of DHR, for a final concentration of […]. Cells were incubated for 1 h at 37 °C in an atmosphere of 5% CO2 and 95% humidity and subsequently washed and resuspended in PBS. The fluorescence intensity was measured using a FACScan flow cytometer (fluorescence-activated cell sorter). The experiments were performed three times with two replicates per assay.

HT29 cells [4] = test: Mitochondrial-membrane potential (Rh123) flow cytometry, HT29; format: cell-based, human; details: HT29, 72 h at IC50 concentration
Procedure: as §4, §5

HT29 cells [5] = test: Cell-cycle distribution by PI flow cytometry, HT29; format: cell-based, human; details: HT29, 72 h at IC50 concentration
Procedure: Based on the cytotoxicity shown by derivatives 1, 4, 7, and 10, a study was made concerning their effects on the distribution of the cell cycle in order to determine possible cytostatic effects caused by the cytotoxic response. The percentages of cells in the different phases of the cycle were analyzed at 72 h, by the incorporation of propidium iodide. […] The values of cell percentage were expressed as means ± SEM of at least two independent experiments performed in triplicate. Flow cytometry was also used to measure DNA ploidy and alterations in cell-cycle profiles. The DNA content is proportional to the fluorescence of propidium iodide, enabling the percentage of cells to be determined in each phase of the cycle and the cell subpopulations with different DNA contents to be visualized.
The method used to quantify the amount of DNA in the different phases of the cell cycle (G0/G1, S, and G2/M) was performed by flow cytometry, using a fluorescence-activated cell sorter (FACS) at 488 nm in an Epics XL flow cytometer (Coulter Corporation, Hialeah, FL, USA). For this assay, 5 × 10^4 B16–F10, 6 × 10^4 HT29 cells, and 15 × 10^4 Hep G2 cells were placed in 24-well plates with 1.5 mL of medium and incubated for 24 h. After this time, the cells were treated with the different selected compounds for 72 h at their corresponding IC50 concentrations. After treatment, the cells were washed twice with PBS, trypsinized, and resuspended in 1X TBS (10 mM Tris and 150 mM NaCl); thereafter, Vindelov buffer (100 mM Tris, 100 mM NaCl, 10 mg/mL Rnase, and 1 mg/mL PI, at pH 8) was added. Cells were stored on ice and, just before measurement, were stained with 10 μL of 1 mg/mL PI solution. Approximately, 10 × 10^3 cells were analyzed in each experiment. The experiments were performed three times with two replicates per assay.

Structure (SMILES)	IC50 [1]	IC50 [2]	IC50 [3]	Rh123 staining (mitochondrial-membrane potential) (B16–F10 cells)	Rh123 staining (mitochondrial-membrane potential) (HT29 cells [4])	percentage of cells in the G0/G1 phase (HT29 cells [5])
CC1(C)CC[C@]2(C(=O)NCCCNC(=O)c3cc4ccccc4oc3=O)CC[C@]3(C)C(=CC[C@@H]4[C@@]5(C)C[C@@H](O)[C@H](O)C(C)(C)[C@@H]5CC[C@]43C)[C@@H]2C1 [Compound 1, 2α,3β-Dihydroxy-N-(3′-(2″-oxo-2″H-chromene-3″-carboxamido)propyl)olean-12-en-28-amide]	> 10 µM	> 10 µM	> 10 µM	positive Rh123 staining	positive Rh123 staining	–
CC1(C)CC[C@]2(C(=O)NCCCNC(=O)/C=C/c3ccc(O)cc3)CC[C@]3(C)C(=CC[C@@H]4[C@@]5(C)C[C@@H](O)[C@H](O)C(C)(C)[C@@H]5CC[C@]43C)[C@@H]2C1 [Compound 7, 2α,3β-Dihydroxy-N-(3′-((E)-3″-(4‴-hydroxyphenyl)acrylamido)propyl)olean-12-en-28-amide]	10.4 ± 0.2 µM	10.9 ± 0.5 µM	8.8 ± 0.4 µM	positive Rh123 staining	positive Rh123 staining	greater than 70%
CC1(C)CC[C@]2(C(=O)NCCCNC(=O)Cc3cc(=O)oc4cc(O)ccc34)CC[C@]3(C)C(=CC[C@@H]4[C@@]5(C)C[C@@H](O)[C@H](O)C(C)(C)[C@@H]5CC[C@]43C)[C@@H]2C1 [Compound 4, 2α,3β-Dihydroxy-N-(3′-(2″-(7‴-hydroxy-2‴-oxo-2‴H-chromen-4‴-yl)acetamido)propyl)olean-12-en-28-amide]	> 10 µM	> 10 µM	> 10 µM	positive Rh123 staining	positive Rh123 staining	greater than 70%
CC1(C)CC[C@]2(C(=O)O)CC[C@]3(C)C(=CC[C@@H]4[C@@]5(C)C[C@@H](OC(=O)c6cc7ccccc7oc6=O)[C@H](OC(=O)c6cc7ccccc7oc6=O)C(C)(C)[C@@H]5CC[C@]43C)[C@@H]2C1 [Compound 10]	0.6 µM	1.1 ± 0.1 µM	0.9 µM	positive Rh123 staining	positive Rh123 staining	greater than 70%
